Earlier results on one substance are cited in US20040248850A1, “Compounds for the treatment of HIV infection” (Kemia, Inc., priority 2003, published 2004).

The subject of this data set is Human Immunodeficiency Virus Type 1. Conditions: in cell culture.

On to enfuvirtide, for which the concentration for a half-maximal effect (EC50) is 1 ng/mL.

For orientation: EC50 means the midpoint of the concentration-response curve.
